How the values were obtained:
[1] = target: histidine tagged recombinant human full-length Bruton Agammaglobulinemia Tyrosine Kinase (Btk) (Homo sapiens (Human), UniProt Q06187); test: Btk Kinase Inhibition Assay (fluorescence polarization, KinEASE FP Fluorescein Green); type: biochemical; conditions: 10 μM ATP, 250 μM substrate, 60 minutes room temperature; Ki from IC50 by Cheng-Prusoff
Description: Kinase Binding Btk Kinase Inhibition Assay
Fluorescence polarization-based kinase assays were performed in 384 well-plate format using histidine tagged recombinant human full-length Bruton Agammaglobulinemia Tyrosine Kinase (Btk) and a modified protocol of the KinEASE™ FP Fluorescein Green Assay supplied from Millipore. Kinase reaction were performed at room temperature for 60 minutes in presence of 250 μM substrate, 10 μM ATP and variable test article concentrations. The reaction was stopped with EDTA/kinease detection reagents and the polarization measured on a Tecan 500 instrument. From the dose-response curve obtained, the IC50 was calculated using Graph Pad Prisms® using a non linear fit curve. The Km for ATP on each enzyme was experimentally determined and the Ki values calculated using the Cheng-Prusoff equation (see: Cheng Y, Prusoff W H. (1973) Relationship between the inhibition constant (K1) and the concentration of inhibitor which causes 50 percent inhibition (I50) of an enzymatic reaction”. Biochem Pharmacol 22 (23): 3099-108).

[2] = system: Splenocytes; test: Splenic Cell Proliferation Assay (anti-IgM stimulated B cell proliferation, Cell Titer-Glo); type: cell-based; conditions: Splenocyte; CD1 mouse splenocytes, 2.5 ug/ml anti-IgM F(ab')2, 72 h; read-out: EC50 (nM), Inhibition of splenic cell proliferation
Description: Splenic Cell Proliferation Assay
Splenocytes were obtained from 6 week old male CD1 mice (Charles River Laboratories Inc.). Mouse spleens were manually disrupted in PBS and filtered using a 70 um cell strainer followed by ammonium chloride red blood cell lysis. Cells were washed, resuspended in Splenocyte Medium (HyClone RPMI supplemented with 10% heat-inactivated FBS, 0.5× non-essential amino acids, 10 mM HEPES, 50 uM beta mercaptoethanol) and incubated at 37° C., 5% CO2 for 2 h to remove adherent cells. Suspension cells were seeded in 96 well plates at 50,000 cells per well and incubated at 37° C., 5% CO2 for 1 h. Splenocytes were pre-treated in triplicate with 10,000 nM curves of Formula 1 compounds for 1 h, followed by stimulation of B cell proliferation with 2.5 ug/ml anti-IgM F(ab′)2 (Jackson ImmunoResearch) for 72 h. Cell proliferation was measured by Cell Titer-Glo Luminescent Assay (Promega). EC50 values (50% proliferation in the presence of compound as compared to vehicle treated controls) were calculated from dose response compound curves using GraphPad Prism Software.

[3] = system: Balb/c mice; test: Mouse Arthus; type: in vivo; conditions: delivered orally at 30 mg/kg, female Balb/c mice
Description: Mouse Arthus studies were conducted as reported in Braselmann S, Taylor V, Zhao H, Wang S, Sylvain C, Baluom M, Qu K, Herlaar E, Lau A, Young C, Wong B R, Lovell S, Sun T, Park G, Argade A, Jurcevic S, Pine P, Singh R, Grossbard E B, Payan D G, Masuda E S: R406 an orally available spleen tyrosine kinase inhibitor blocks fc receptor signaling and reduces immune-complex mediated inflammation. J Pharmacol Exp Ther, 2006, 319:998-1008.
In summary, female Balb/c mice (6-7 weeks on arrival) were habituated to the animal facility for at least 4 days. On the day of the experiment, animals were pre-treated (t=minus 1 h) with compound or vehicle alone by gavage (PO). At t=0, animals were injected intravenously (IV; 0.1 mL/mouse) with saline containing chicken ovalbumin and Evan's blue (10 mg/mL of each). Ten minutes later (t=10 min), animals were anesthesized with isoflurane, the dorsal surface was shaved and rabbit anti-chicken ovalbumin antibody was then injected intradermally at one site on the right side of the animal (25 μg in 30 μL). […]
The animals were then returned to their home cage and skin punches (8 mm) were collected from each injection site four hours later. […] The amount of Evan's blue in the formamide solution was then assessed by spectrophotometry (630 nm) as a measure of serum extravasation into the dermis.

histidine tagged recombinant human full-length Bruton Agammaglobulinemia Tyrosine Kinase (Btk), sequence (Q06187 whole entry): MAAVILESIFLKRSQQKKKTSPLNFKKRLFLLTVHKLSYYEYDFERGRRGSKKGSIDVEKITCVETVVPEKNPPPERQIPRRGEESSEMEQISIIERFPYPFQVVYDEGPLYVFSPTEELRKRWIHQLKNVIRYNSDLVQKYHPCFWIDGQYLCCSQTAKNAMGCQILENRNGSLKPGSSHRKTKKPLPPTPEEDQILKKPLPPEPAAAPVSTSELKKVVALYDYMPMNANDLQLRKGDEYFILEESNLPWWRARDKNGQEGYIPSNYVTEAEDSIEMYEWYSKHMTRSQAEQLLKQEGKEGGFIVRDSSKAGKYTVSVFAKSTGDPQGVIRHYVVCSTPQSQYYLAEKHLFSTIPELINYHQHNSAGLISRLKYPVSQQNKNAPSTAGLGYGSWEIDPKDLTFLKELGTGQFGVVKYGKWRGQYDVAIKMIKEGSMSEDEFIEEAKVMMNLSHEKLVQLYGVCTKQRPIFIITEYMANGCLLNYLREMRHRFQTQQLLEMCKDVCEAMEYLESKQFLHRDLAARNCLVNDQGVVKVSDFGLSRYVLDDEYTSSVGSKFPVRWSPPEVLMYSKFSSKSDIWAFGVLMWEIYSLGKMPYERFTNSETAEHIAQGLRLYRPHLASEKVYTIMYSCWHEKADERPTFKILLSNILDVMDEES

SMILES | Ki [1] [nM] | EC50 [2] [nM] | efficacy in mouse Arthus (Evan's blue serum extravasation into the dermis) [3]
Cc1ncc(COc2cc(F)cc(Oc3ccc(-n4nc(C5CCCC5)c5ncnc(N)c54)cc3)c2)cn1 [Compound 8] | < 100 | < 100 | 
Cn1cncc1COc1cc(F)cc(Oc2ccc(-n3nc(C4CCOCC4)c4ncnc(N)c43)cc2)c1 [Compound 4] | < 100 | < 100 | 
Cc1ccc(COc2cc(F)cc(Oc3ccc(-n4nc(C(C)C)c5ncnc(N)c54)cc3)c2)cn1 [Compound 11] | < 100 | < 100 | 
Cc1ncc(COc2cc(F)cc(Oc3ccc(-n4nc(C(C)C)c5ncnc(N)c54)cc3)c2)cn1 [Compound 10] | < 100 | < 100 | demonstrated efficacy
Nc1ncnc2c(C3CCOCC3)nn(-c3ccc(Oc4cc(F)cc(OCc5ccccc5)c4)cc3)c12 [Compound 13] | < 100 | < 100 | 
Cc1ncc(COc2cccc(Oc3ccc(-n4nc(C5CCCC5)c5ncnc(N)c54)cc3)c2)s1 [Compound 2] | < 100 | < 100 | 

Now from value to compound, other results behind:

Ki [1] [nM] | SMILES | EC50 [2] [nM] | efficacy in mouse Arthus (Evan's blue serum extravasation into the dermis) [3]
< 100 | Cc1ncc(COc2cc(F)cc(Oc3ccc(-n4nc(C5CCOCC5)c5ncnc(N)c54)cc3)c2)o1 [Compound 5] | < 100 | 
< 100 | Cc1ccc(COc2cc(F)cc(Oc3ccc(-n4nc(C5CCOCC5)c5ncnc(N)c54)cc3)c2)cn1 [Compound 14] | < 100 | 
< 100 | CC(C)c1nn(-c2ccc(Oc3cc(F)cc(OCc4ccccc4)c3)cc2)c2c(N)ncnc12 [Compound 12] | < 100 | 
< 100 | Nc1ncnc2c(C3CCCC3)nn(-c3ccc(Oc4cccc(OCc5cncs5)c4)cc3)c12 [Compound 1] | < 100 | 
< 100 | Cc1ccc(COc2cc(F)cc(Oc3ccc(-n4nc(C5CCCC5)c5ncnc(N)c54)cc3)c2)cn1 [Compound 6] | < 100 | 
< 100 | Cc1ncc(COc2cc(F)cc(Oc3ccc(-n4nc(C5CCOCC5)c5ncnc(N)c54)cc3)c2)s1 [Compound 3] | < 100 | 
< 100 | Cc1ncc(COc2cc(F)cc(Oc3ccc(-n4nc(C5CCOCC5)c5ncnc(N)c54)cc3)c2)cn1 [Compound 15] |  | 
< 100 | Cc1ncc(COc2cc(F)cc(Oc3ccc(-n4nc(C5CCCC5)c5ncnc(N)c54)cc3)c2)s1 [Compound 7] | < 100 | 
< 100 | Cc1ncc(COc2cc(F)cc(Oc3ccc(-n4nc(C(C)C)c5ncnc(N)c54)cc3)c2)s1 [Compound 9] | < 100 | demonstrated efficacy

— patent US9795608B2, “Protein kinase inhibitors” (PHARMASCIENCE, INC., priority 2012, dated 2017)
